# Values quoted from earlier work as cited in patent US20250319037A1, “METHODS OF DELIVERING THERAPEUTIC AGENTS, AND LIPID COMPOSITIONS” (FUJIFILM Corporation, priority 2022, published 2025).
# Details: Non-patent documents 11 and 12
compound,measurement,value
CC(C)CCC[C@@H](C)[C@H]1CC[C@H]2[C@@H]3CC=C4C[C@@H](OC(=O)NCCN(C)C)CC[C@]4(C)[C@H]3CC[C@]12C [DC-cholesterol],pKa of the tertiary amine group,7.8
